From publication PMC8353353, “Assessing reversible and irreversible binding effects of kinase covalent inhibitors through ADP-Glo assays” (STAR Protocols, 2021)

Assays:
MKK7 [1] = biological target: T1, MKK7 (Homo sapiens, UniProt O14733, S271D/T275D); experiment: ADP-Glo assay with kinase-inhibitor pre-incubation step (phosphorylation of cov-JNK3 substrate by MKK7); assay type: biochemical; conditions: for luminescence intensity: raw data; for Normalized Intensity (%): normalized to Control DMSO only and Control No kinase
T1 construct: Recombinant MKK7 (full-length, S287D/T291D); made in house
T1 sequence (O14733 1-435 isoform O14733-3 S287D/T291D): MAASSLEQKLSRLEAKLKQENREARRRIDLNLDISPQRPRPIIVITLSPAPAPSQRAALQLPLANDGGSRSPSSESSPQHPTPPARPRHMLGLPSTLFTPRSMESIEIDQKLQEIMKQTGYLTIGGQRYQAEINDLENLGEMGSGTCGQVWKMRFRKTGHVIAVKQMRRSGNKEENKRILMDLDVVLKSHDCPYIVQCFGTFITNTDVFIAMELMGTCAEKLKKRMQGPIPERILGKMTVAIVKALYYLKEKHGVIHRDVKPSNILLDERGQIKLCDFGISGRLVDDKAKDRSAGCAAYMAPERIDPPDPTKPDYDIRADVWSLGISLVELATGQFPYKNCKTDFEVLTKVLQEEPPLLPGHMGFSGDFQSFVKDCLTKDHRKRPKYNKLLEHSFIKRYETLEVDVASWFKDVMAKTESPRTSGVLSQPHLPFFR
Experimental: The protocol described here uses Echo® 550 liquid handler. However, when performing with manual pipetting, adjusting pipetting volume of each component of the kinase reaction is required with an example provided in the above table. We had performed the following protocol using both pipetting methods, and observed similar assay quality with an example shown in Figure 3.
This part of the protocol describes a variation of the ADP-Glo^TM assay that includes a pre-incubation step between the tested inhibitors and MKK7 prior to an addition of ATP (Figure 4). […] Thus, apparent greater inhibitory potencies would be expected. The protocol below describes an experiment testing three inhibitors using fixed concentrations of 25 nM for MKK7 kinase, 30 μM for cov-JNK3 substrate and 100 μM for ATP with the layout of the assay plate shown in Figure 5. • 1. Thaw ADP-Glo^TM assay reagents. Place 10 mM ultra-pure ATP immediately on ice, while the other reagents can be kept at 22°C–25°C. • 2. Quick thaw MKK7 kinase and 10× cov-JNK3 substrate and spin both using benchtop centrifuge at high speed at 4°C for 10 min. Transfer clear supernatant into a new tube and keep on ice. • 3. Prepare 75 μL of 10× MKK7 kinase solution by diluting MKK7 to 250 nM in protein storage buffer. Keep the solution on ice until further use. • 4. Prepare the following mixtures and keep them on ice until further use. • a. Mixture 1: one part of 10× MKK7 kinase solution, one part of 10× cov-JNK3 substrate and eight part of the reaction buffer. For example, 500 μL of Mixture 1 contains 50 μL of 10× MKK7 kinase solution, 50 μL of 10× cov-JNK3 substrate and […] of the reaction buffer. This 500-μL Mixture 1 is adequate for approximately 100 reactions and will be used for the reactions containing inhibitors and the “Control DMSO only” wells (see Figure 5). • b. Mixture 2: one part of protein storage buffer, one part of 10× cov-JNK3 substrate and eight part of the reaction buffer. For example, 50 μL of Mixture 2 is made from 5 μL of protein storage buffer, 5 μL of 10× cov-JNK3 substrate and 45 μL of the reaction buffer. This 50-μL Mixture 2 is adequate for 10 reactions and is for the “Control No kinase” wells (see Figure 5). • c. Mixture 3: one part of 10× MKK7 kinase solution, one part of protein storage buffer and eight part of the reaction buffer. For example, 50 μL of Mixture 3 is made from 5 μL of 10× MKK7 kinase solution, 5 μL of protein storage buffer and 45 μL of reaction buffer. This 50-μL Mixture 3 is adequate for 10 reactions and is for the “Control No substrate” wells (see Figure 5) • 5. Prepare a serial dilution of inhibitors in a 384-well assay plate using the “Dose response” setting in Echo®550 acoustic liquid handler according to the manufacture’s manual. For this experiment, the dilution series of three inhibitors at 11 concentrations is prepared by the following steps (see also Figure 5 and Data S1 for an example input for Echo® dose response pipetting): • a. Prepare 5 mM inhibitor stock solutions in DMSO and transfer 25 μL of each into three different wells of an Echo® source plate. Fill the 4th well with 30 μL DMSO. • b. Use the “Dose response” program in Echo® 550 liquid handler with a DMSO backfill option to aliquot the correct volumes of the inhibitors and DMSO into each reaction wells in the assay plate according to the plate layout in Figure 5. Note that two intermediate compound dilutions will be created by the ECHO® dose response program (see Data S1 for an example input for Echo® dose response pipetting). 50 nL of DMSO should be transferred to each control well to ensure homogeneous assay conditions. The total transfer volume of 50 nL of either inhibitor alone, inhibitor plus DMSO or DMSO alone is fixed to ensure constant 1% final DMSO concentration (see Data S1 for an example input for Echo® dose response pipetting). • 6. […]

MKK7 [2] = biological target: T1, MKK7; set-up: method as in Schröder et al., 2020; conditions: with vs without kinase-inhibitor pre-incubation; Figure 6; ref Schröder et al., 2020; cited from earlier work
[3] = [Inhibitor] 1.49E-05 M (log -4.83)
[4] = [Inhibitor] 1.65E-08 M (log -7.78)
[5] = [Inhibitor] 1.65E-09 M (log -8.78)
[6] = [Inhibitor] 2.43E-10 M (log -9.62)
[7] = [Inhibitor] 2.91E-07 M (log -6.54)
[8] = [Inhibitor] 4.95E-05 M (log -4.31)
[9] = [Inhibitor] 4.95E-06 M (log -5.31)
[10] = [Inhibitor] 4.95E-09 M (log -8.31)
[11] = [Inhibitor] 8.08E-10 M (log -9.09)
[12] = [Inhibitor] 8.08E-11 M (log -10.09)
[13] = [Inhibitor] 9.71E-07 M (log -6.01)
[14] = [Inhibitor] 9.71E-08 M (log -7.01)

luminescence intensity (MKK7 [1]; [3]) | luminescence intensity (MKK7 [1]; [4]) | luminescence intensity (MKK7 [1]; [5]) | luminescence intensity (MKK7 [1]; [6]) | luminescence intensity (MKK7 [1]; [7]) | luminescence intensity (MKK7 [1]; [8]) | luminescence intensity (MKK7 [1]; [9]) | luminescence intensity (MKK7 [1]; [10]) | luminescence intensity (MKK7 [1]; [11]) | luminescence intensity (MKK7 [1]; [12]) | luminescence intensity (MKK7 [1]; [13]) | luminescence intensity (MKK7 [1]; [14]) | Normalized Intensity (%) (MKK7 [1]; log[Inhibitor] -4.31) | Normalized Intensity (%) (MKK7 [1]; log[Inhibitor] -4.83) | Normalized Intensity (%) (MKK7 [1]; log[Inhibitor] -5.31) | Normalized Intensity (%) (MKK7 [1]; log[Inhibitor] -6.01) | Normalized Intensity (%) (MKK7 [1]; log[Inhibitor] -6.54) | Normalized Intensity (%) (MKK7 [1]; log[Inhibitor] -7.01) | Normalized Intensity (%) (MKK7 [1]; log[Inhibitor] -7.78) | Normalized Intensity (%) (MKK7 [1]; log[Inhibitor] -8.31) | Compound | further results
18884 | 157972 | 195602 | 176476 | 49318 | 52382 | 64212 | 138435 | 152383 | 159956 | 22472 | 121319 | 17.05% | -1.74% | 23.69% | 0.27% | 15.33% | 55.73% | 76.30% | 65.34% | C=CC(=O)N1CCC[C@@H](n2nc(-c3ccc(Oc4ccccc4)cc3)c3c(N)ncnc32)C1 [Ibrutinib] | Normalized Intensity (%) (MKK7 [1]; log[Inhibitor] -8.78): 97.41%; Normalized Intensity (%) (MKK7 [1]; log[Inhibitor] -9.09): 73.16%; Normalized Intensity (%) (MKK7 [1]; log[Inhibitor] -9.62): 86.68%; Normalized Intensity (%) (MKK7 [1]; log[Inhibitor] -10.09): 77.41%
50306 | 167511 | 188762 | 186492 | 53403 | 62181 | 22921 | 186941 | 193825 | 208349 | 43374 | 94669 | 22.55% | 15.89% | 0.52% | 12.00% | 17.63% | 40.78% | 81.65% | 92.55% | CC(=O)c1cnc2ccc(-c3cc(Cl)c(O)c(Cl)c3)nc2c1N[C@H]1CC[C@H](CN(C)C)CC1 [OTSSP167] | Normalized Intensity (%) (MKK7 [1]; log[Inhibitor] -8.78): 93.57%; Normalized Intensity (%) (MKK7 [1]; log[Inhibitor] -9.09): 96.42%; Normalized Intensity (%) (MKK7 [1]; log[Inhibitor] -9.62): 92.30%; Normalized Intensity (%) (MKK7 [1]; log[Inhibitor] -10.09): 104.56%; shift of inhibitory potencies (IC50) between the two assay variants (MKK7 [2]): less pronounced
